Reference: patent publication US20240280490A1, “SYSTEMS AND METHODS FOR SIMULTANEOUS NEAR-INFRARED LIGHT AND VISIBLE LIGHT IMAGING” (priority 2020, published 2024)
Entries after “also recorded” stand apart in the source; their conditions may differ.

Columns and labels:
[1] = test system: vascular lesion (abnormal vasculature) in brain tissue; conditions: ICG alone; general comparison statement; cited from earlier work
[2] = test system: Grade 4 Atypical Teratoid Rhabdoid Tumor (ATRT) in the posterior fossa/brain stem; test: Intraoperative NIR fluorescence imaging during pediatric brain tumor resection; assay type: in vivo, human
Method: This example describes use of the imaging system and/or method disclosed herein for coaxial illumination and visualization of tozuleristide fluorescence during surgical resection of a pediatric brain tumor. The imaging system of the present invention was used to image brain tissue to detect a cancer using fluorescence imaging. Surgery was performed to remove cancer from the subject.
Subject T613 was diagnosed with a Grade 4 Atypical Teratoid Rhabdoid Tumor (ATRT) in the posterior fossa/brain stem. Tozuleristide which is a peptide-fluorophore detectable agent (15 mg/m2 dose), was given by intravenous (IV) bolus injection about 13.5 hours prior to the start of surgery. The imaging system was attached to the Zeiss Pentero surgical microscope prior the start of surgery, and the microscope head and arm and the imaging system and proximal imaging cable were enclosed in the microscope manufacturer's standard sterile drape. The drape's cover glass was secured over the bottom window aperture of the imaging system.
After the tumor was exposed, the imaging platform was initialized and used continuously. The imaging platform enabled the surgeon to view fluorescence and visible imaging separately and together on the imaging station display, simultaneously with viewing the surgical site in visible light through the operating microscope's eyepieces. […] Moreover, there was no need to reposition the operating microscope to view the imaging platform's fluorescence and visible images, thus allowing normal imaging of the surgical area through the microscope's eyepieces together with the fluorescence imaging system during the operation, which decreased disruption to the surgical workflow.
Video was captured for the duration of the tumor resection, and still images were captured of the exposed tumor. […] FIGS. 15A-15F show images taken from the tumor resection with the near-infrared (NIR) fluorescence images of the tumor using the imaging system (FIGS. 15B and 15E) and the overlay image with the NIR or IR fluorescence overlaid with the white light or visible light spectrum illumination (FIGS. 15C and 15F). […] In the overlay image, the normal brain tissue appeared red, as it does under normal visible light or white light as shown the visible light images of the tumor ([…]). The surgeon noted that only tumor tissue appeared fluorescent.

[3] = test system: vascular lesion (abnormal vasculature) in brain tissue; test: Intraoperative NIR fluorescence imaging during resection of a cerebral vascular lesion (arteriovenous or cavernous malformation); assay type: in vivo, human; conditions: for Fluorescence in surrounding normal brain tissue and normal vasculature / Tozuleristide fluorescence in the abnormal vascular tissue / vascular lesion: pediatric subject, 22 mg IV approximately 5-6 hours before surgery and image collection, in situ
Method: This example describes use of the imaging system and/or methods disclosed herein for coaxial illumination and visualization of tozuleristide fluorescence during surgical resection of an arteriovenous malformation or cavernous malformation in a pediatric patient. The imaging system of the present invention was used to image brain tissue to detect abnormal vasculature using fluorescence imaging. Surgery was performed to remove the abnormality from the subject.
A pediatric subject with a history of anosmia was found on MRI to have a 3.5 cm T1-hypointense, T2/FLAIR-hyperintense mass in the right middle frontal gyrus with a central enhancing nodule, initially diagnosed pre-operatively to be a low-grade glioma. […] The patient received 22 mg tozuleristide via IV injection approximately 5-6 hours before surgery and image collection. The imaging system head was attached to the Zeiss Pentero surgical microscope along with two eyepieces prior the start of surgery.
After the lesion was exposed, the imaging system was initialized and used continuously. The imaging system enabled the surgeon to view fluorescence and visible imaging together and simultaneously with the operating microscope. A microsurgical resection was performed through a right frontal craniotomy. […] The abnormal tissue was completely resected. The patient recovered without deficit. Pathology confirmed the absence of tumor.
Video was captured for the duration of the resection, and still images were captured of the exposed lesion. […] FIGS. 29A-I show images taken from the vascular lesion with the near-infrared (NIR) fluorescence images of the vascular lesion using the imaging system. […] In the overlay image, the normal brain tissue and normal blood vessels appeared pink or light tan to red, as it does under normal visible light or white light. The surgeon noted that only the abnormal vascular tissue appeared fluorescent.
FIGS. 29A-I show representative images of in situ or intra-operative tissue during surgery on a vascular lesion in a patient, wherein 22 mg of tozuleristide was administered to the human subject. […] Labeled arrows indicate non-fluorescent regions of normal blood vessels (“BV”) and normal brain tissue (“NB”). In contrast, fluorescence signal corresponding to lighter and brighter areas in the NIR or IR image, was indicative of the presence of tozuleristide on the abnormal vascular lesion (“VL”), and not in normal tissue. […] The arrows mark the same locations as shown in the NIR or IR image in FIG. 29E. […] Fluorescence in the vascular lesion (“VL”) clearly differentiated it from the surrounding normal tissues, including normal blood vessels (“BV”). […] Arrows indicate the vascular lesion (labeled “VL”) and adjacent normal brain (labeled “NB”), which is non-fluorescent. […] While the normal brain has a light tan to pink color (light gray in a gray scale image), it is perfused with normal blood vessels that can be differentiated from the vascular lesion by the absence of fluorescence.

[4] = Subject T613, 15 mg/m2 IV bolus about 13.5 hours prior to start of surgery, in situ

Row | Molecule | Blood vessel fluorescence after injection [1] | Surgeon's assessment of the distinction between tumor and normal tissue fluorescence ([2]; NIR or IR fluorescence using the imaging system, compared with normal visible light) | Fluorescence in non-tumor brain tissue [2, 4] | Tozuleristide fluorescence in the exposed tumor (NIR or IR fluorescence image) [2, 4] | Histopathology of the fluorescent tissue samples ([2]; tumor resection, Subject T613) | Time after injection at which diseased tissue can be highlighted ([3]; general statement, fluorescence dependent on pathological tissue binding and uptake) | Fluorescence in surrounding normal brain tissue and normal vasculature [3] | Tozuleristide fluorescence in the abnormal vascular tissue / vascular lesion [3] | Fluorescence in surrounding normal brain tissue and normal vasculature ([3]; listed as Tozuleristide) | Tozuleristide fluorescence in the abnormal vascular tissue / vascular lesion ([3]; listed as Tozuleristide) | Histopathology of the fluorescent tissue samples ([3]; vascular lesion resection)
1 | CC1(C)C(/C=C/C=C/C=C/C=C2\N(CCCCS(=O)(=O)O)c3ccc4ccccc4c3C2(C)C)=[N+](CCCCS(=O)(=O)[O-])c2ccc3ccccc3c21 [ICG, indocyanine green] | transiently lights up blood vessels immediately after injection | – | – | – | – | – | – | – | – | – | –
2 | Tozuleristide | – | very good distinction between tumor and normal tissue fluorescence | did not show any fluorescence | observed in situ in the exposed tumor | confirmed to be viable tumor | up to 30 hours | showed no fluorescence | indicative of the presence of tozuleristide in the vascular lesion; also recorded: fluoresced avidly | no discernable background fluorescence | observed in situ in the exposed vascular lesion | confirmed to be non-cancerous and vascular in nature
